Experimental data from PMC5615129 (Toxicology Reports, 2017).

Biological target: T1, aromatase (CYP19) (Homo sapiens, UniProt P11511)
T1 sequence (P11511 1-503): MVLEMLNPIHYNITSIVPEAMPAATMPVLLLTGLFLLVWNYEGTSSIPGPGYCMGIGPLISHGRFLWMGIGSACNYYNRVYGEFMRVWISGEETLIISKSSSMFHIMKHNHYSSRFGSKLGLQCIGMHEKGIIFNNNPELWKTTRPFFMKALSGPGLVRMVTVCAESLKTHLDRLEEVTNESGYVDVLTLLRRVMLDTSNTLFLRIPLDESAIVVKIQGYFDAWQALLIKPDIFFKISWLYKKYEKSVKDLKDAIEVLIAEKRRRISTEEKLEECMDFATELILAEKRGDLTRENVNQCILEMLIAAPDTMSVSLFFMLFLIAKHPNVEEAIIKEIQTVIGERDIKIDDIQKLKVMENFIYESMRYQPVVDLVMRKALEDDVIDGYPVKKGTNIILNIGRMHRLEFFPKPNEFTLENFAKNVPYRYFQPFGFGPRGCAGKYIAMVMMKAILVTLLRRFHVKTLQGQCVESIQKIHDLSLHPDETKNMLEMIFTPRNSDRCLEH
Type: cell-based

C/C=C(\C)c1cc(O)c(C)c2c1Oc1cc(O)cc(C)c1C(=O)O2 [UNG, unguinol]
IC50: 9.73 µM
